Measurements from patent US20260014278A1, “HYBRID PEPTIDE DENDRIMER SYSTEMS AND EXTRAHEPATIC DELIVERY” (NUNTIUS THERAPEUTICS LIMITED, priority 2022, published 2026).

Key:
[1] = test system: Mouse muscle cells (C2c12); test: eGFP expression (RFU/mg) in C2c12 muscle cells, muscle-targeting dendrimers; type: cell-based; settings: N:P=0.6:1, DOTMA:DOPE w/w 10:1, 24 hours post-transfection
Procedure: Cell lines, transfection reagents and mRNA. C2c12 cells were maintained in DMEM medium with 10% (v/v) FCS and 1% (v/v) L-glutamine in a humidified atmosphere in 5% CO2, and 37° C. The Alexa Fluor 488 tagged mRNA, expressing an eGFP, was purchased from RiboPro. The mRNA either expressing an eGFP or firefly luciferase was purchased from Trilink. DOTMA:DOPE, 1:1 (w/w) were obtained from Invitrogen or Encapsula NanoSciences LLC.
Transfection procedure. 24 hours before transfection, C2c12 cells were seeded in 96well plates in order to reach 70% confluence. mRNA transfection complexes were formed by mixing mRNA with the dendrimers in 25 mM HEPES buffer, then with DOTMA:DOPE in 25 mM HEPES buffer at 25° C. The transfection complexes were then overlaid to the cells in full growth medium. The cells were harvested 4 hours after transfection for FACS analysis or 24 hours post transfection for reporter genes assays.
Two variants (NTX2 and NTX3) of the peptide dendrimer GSCG1,2-RL, 3-LR ((LR)8(KRL)4(KRL)2KGSC-NH2) were made which include the ASSLNIA (SEQ ID NO:1) muscle targeting peptide. Transfection of muscle cells with GSCG1,2-RL, 3-LR, NTX2 ((LR)8(KRL)4(KRL)2[…](Acp)-NH2) or NTX3 ((LR)8(KRL)4(KRL)2[…](Acp)-NH2) was performed using eGFP mRNA and transfection efficiency was assayed using either flow cytometry or the transgene expression assay. […]
Transgene expression assay: The cells were washed twice with PBS and incubated with 50 ul of 1× M-PER lysis buffer (Thermo 11874111). […] 40 ul of lysate from each well was transferred to all black 96 well plates for quantification of eGFP relative fluorescence unit (RFU), absorbance at 535 nm, using Molecular devices SpectraMax iD5.
Protein content determination: The protein content of each cell lysate was determined by mixing the lysate (25 μL) with Pierce™ BCA Protein Assay Kit (200 ul, Thermo Scientific). After 30 minutes of 37° C. incubation in at dark, absorbance was measured at 562 nm with Molecular devices SpectraMax iD5 and converted to protein concentration using a BSA standard curve. […]

Neuro2A cells = test: Luciferase plasmid (pCl-Luc) DNA transfection of Neuro2A cells; type: cell-based; settings: for transfection, comparison of generations G1, G2, G3: pCl-Luc with D/D, 24 h, FIG. 16B
Excerpt: (§1) FIG. 15. Comparison of the transfection efficiency of G1,2,3-RL with other commercial transfection reagents including DOTMA/DOPE, Polyethylenimine and Lipofectamine 2000 for DNA delivery. (A) Transfection in HeLa cells without the presence of serum, (B) transfection in HeLa cells with the presence of serum, (C) transfection in Neuro2A cells without the presence of serum and (D) transfection in Neuro2A cells with the presence of serum. Cells transfected with a luciferase-expressing plasmid (pCl-Luc) in the presence of GSCG1,2,3-RL with D/D (measured 24 h after transfection). The luminescence values were normalized by dividing them by the analogous values for cells treated with a D/D DNA complex to generate the % of transfection. Conditions: 1×10^4 cells were transfected with 0.25 μg pCl-Luc for 4 hours without serum or in the presence of 10% serum. Error bars refer to the mean±SEM for experiments carried out in triplicate. […] D/D is DOTMA/DOPE at w/w 1:1.
(§2) FIG. 16. Comparison of the transfection efficiency of dendrimers with different generations (G1, G2 and G3) with different N/P ratios and cationic residues (e.g. KL vs RL) for DNA delivery. (A) Transfection efficiency in HeLa cells, (B) transfection efficiency in Neuro2A cells. Cells transfected with a luciferase-expressing plasmid (pCl-Luc) in the presence of peptide dendrimers with D/D (measured 24 h after transfection). The luminescence values were normalized by dividing them by the analogous values for cells treated with a D/D DNA complex (w/w 1:1, 0.25 μg) to generate the % of transfection. Conditions: 1×10^4 cells were transfected with 0.25 μg pCl-Luc. Error bars refer to the mean±SEM for experiments carried out in triplicate. * denotes p<0.05. D/D is DOTMA/DOPE at w/w 1:1. Generation 2 and generation 3 dendrimers perform better at transfecting both HeLa and Neuro2A cells compared to generation 1 dendrimers.
(§3) Using a third generation peptide dendrimer, GSCG1,2,3-RL, the inventors also compared the transfection efficiency of DNA using this dendrimer to that of commercially available transfection reagents. […]

HeLa cells = test: Luciferase plasmid (pCl-Luc) DNA transfection of HeLa cells; type: cell-based, human; settings: for transfection, comparison of generations G1, G2, G3: pCl-Luc with D/D, 24 h, FIG. 16A
Excerpt: as §1, §2, §3

[2] = Zeta potential of nanoparticles (electrophoretic light scattering); type: physicochemical
Excerpt: Zeta potential is a measurement of the magnitude of the electrostatic or charge repulsion/attraction between particles. This can be determined by analysing particle mobility and charge (Zeta potential) using the Electrophoretic Light Scattering (ELS) technique.
Zeta potential is a measurement of the magnitude of the electrostatic or charge repulsion/attraction between particles. This can be determined by analysing particle mobility and charge (Zeta potential) using the Electrophoretic Light Scattering (ELS) technique. […] Parameters: reference material: polystyrene latex, dispersant: water, 25° C. The measurements of the zeta potential were carried out using the Zetasizer Advance Series—Pro (Malvern Panalytical Ltd, Malvern, UK) according to the manufacturer's instructions.

[3] = Dynamic light scattering: hydrodynamic size and polydispersity index (PDI) of nanoparticles; type: physicochemical; settings: for Pdl / Z-average diameter: GSCG1,2-RHL N:P 0.6:1, DOTMA:DOPE nanoparticles, coating mol ratio 2.06 to mRNA P where coated
Procedure: (§4) The hydrodynamic size was measured using the dynamic light scattering (DLS) technique. DLS is a very sensitive, non-invasive method to measure size and size distribution of nanoparticles in a liquid. […] Analysing these intensity fluctuations allows us to calculate the velocity of the Brownian motion. The size of the nanoparticles can be determined by using the Stokes-Einstein relationship. With the latest technology, it can measure nanoparticles smaller than 1 nm.
PDI is used to estimate the average uniformity of a particle solution, The method of cumulants is a standard technique for analysing DLS data on sample polydispersity. PDI is a number calculated from a 2 parameter fit to the correlation data (the cumulants analysis). The cumulants analysis is used to evaluate the autocorrelation function generated by a DLS experiment. The calculation is defined in ISO 13321 and ISO 22412. PDI values greater than 0.7 indicate that the sample has a very broad size distribution and is not suitable for the DLS technique. The calculations for these parameters are defined in the ISO standard document 13321:1996 E and ISO 22412:2008.
as §4, with “Size, zeta potential and polydispersity index (PDI) measurement: The hydrodynamic” for “The hydrodynamic”, “scattering (DLS) technique using the Zetasizer Advance Series—Pro (Malvern Panalytical Ltd, Malvern, UK) according to the manufacturer's instructions. DLS is” for “scattering (DLS) technique. DLS is”
The data obtained with DLS measurements can also be used to calculate the PDI of particle in solution. PDI is used to estimate the average uniformity of a particle solution. The method of cumulants is a standard technique for analysing DLS data on sample polydispersity. PDI is a number calculated from a 2 parameter fit to the correlation data (the cumulants analysis). The cumulants analysis is used to evaluate the autocorrelation function generated by a DLS experiment. The calculation is defined in ISO 13321 and ISO 22412. PDI values greater than 0.7 indicate that the sample has a very broad size distribution and is not suitable for the DLS technique. The calculations for these parameters are defined in the ISO standard document 13321:1996 E and ISO 22412:2008.
To measure the size and PDI, the samples were diluted 16× in 25 mM HEPES buffer (5 μl sample+75 μl buffer). Parameters: reference material: polystyrene latex, dispersant: water, 25° C. The PDI measurements were measured in nanoparticles comprising a dendrimer:nucleic acid NP ratio of 8:1.

[4] = GSCG1,2-RHL N:P 0.6:1, DOTMA/DOPE nanoparticles coated at 2.06:1 (dendrimer to mRNA)
[5] = GSCG1,2-RHL N:P 0.6:1, DOTMA/DOPE nanoparticles coated at 2.72:1 (dendrimer to mRNA)
[6] = GSCG1,2-RHL N:P 0.6:1, DOTMA:DOPE nanoparticles, coating mol ratio 2.06 to mRNA P where coated

(LR)4(KRL)2KRHCGAASSLNIA-(Acp)-NH2 [NTX5]
increase in eGFP expression compared to RHCG1-RL, 2-LR ([1]; FIG. 10): ˜two-fold

(RL)4(KRL)2KGSC-NH2 [GSCG1,2-RL]
transfection efficiency in comparison to GSCG1,2-KL (Neuro2A cells; N/P ratio of 20:1, FIG. 16): higher transfection efficiency | transfection efficiency in comparison to GSCG1,2-KL (HeLa cells; N/P ratio of 10:1 or 20:1, FIG. 16): higher transfection efficiency

(Ac-EEEE)2KGSGGSGGSC-NH2
zeta potential [2, 4]: ~33.2 mV | zeta potential [2, 5]: ~35.4 mV | zeta potential [2, 6]: −29.3 mV | PDI [3, 4]: 0.12 | size [3, 4]: 166 nm | PDI [3, 5]: 0.13 | size [3, 5]: 169 nm | Pdl [3]: 0.16 | Z-average diameter [3]: 165 nm

(Ac-EEEE)2KGSGGSGGSACDCRGDCFCG-NH2 (Disulfide bridges: C1-C4, C2-C3)
zeta potential [2, 6]: −31.9 mV | Pdl [3]: 0.20 | Z-average diameter [3]: 191 nm

(LR)8(KRL)4(KRL)2KGSCGAASSLNIA(Acp)-NH2 [NTX2]
increase in eGFP expression compared to GSCG1,2-RL, 3-LR ([1]; FIG. 9): two-fold

(KL)2KGSC-NH2 [GSCG1-KL]
transfection, comparison of generations G1, G2, G3 (Neuro2A cells): do not transfect | transfection, comparison of generations G1, G2, G3 (HeLa cells): do not transfect

(RL)2KGSC-NH2 [GSCG1-RL]
transfection, comparison of generations G1, G2, G3 (Neuro2A cells): do not transfect | transfection, comparison of generations G1, G2, G3 (HeLa cells): do not transfect
